Source: publication PMC12721191, “Oxidative hypoxia drives TGF-β1–induced fibrosis under normoxia” (Redox Biology, 2025)
Entries after “also recorded” stand apart in the source; their conditions may differ.

How the values were obtained:
[1] = tested on: A549; test: MTT cytotoxicity assay; assay type: cell-based, human; conditions: two cell lines including A549, up to 7 μM, with or without TGF-β1
Method: Cells (8 × 10^3 per well, 96-well) were treated as indicated, incubated with 0.5 mg/mL MTT for 4 h, solubilized in DMSO, and read at 570 nm.
Cells were seeded at 8 × 10³ cells per well in 200 µL of medium in a 96-well plate. The next day, the medium was replaced with medium containing the test compound(s) at the desired concentration(s) and incubated for the specified duration. After the incubation, the medium was discarded and replaced with 0.5 mg/mL Thiazolyl Blue Tetrazolium Bromide in PBS. Following a 4 h incubation at 37 °C, the formazan crystals were dissolved in DMSO, and absorbance was measured at 570 nm using a SUNRISE™ microplate reader. The relative cell viability was calculated based on the optical density values.

[2] = tested on: BLM-induced pulmonary fibrosis; test: RT-qPCR of lung tissue in BLM-treated mice; assay type: in vivo, ICR mice; conditions: BLM 30 mg/kg; ACF-2 10 mg/kg i.p. every 2 days or NIDB 60 mg/kg/day
Method: Total RNA (AccuPrep®) was reverse-transcribed and amplified with SYBR Green chemistry on a StepOnePlusTM system; relative expression was calculated by ΔΔCt. Male ICR mice received BLM (30 mg/kg, intratracheal). […] Total RNA was extracted from both cultured cells and mouse lung tissue using the AccuPrep® Universal RNA Extraction Kit. […] RT-qPCR was performed using iTaqTM Universal SYBR® Green Supermix on a StepOnePlusTM Real-Time PCR System. […] All animal studies were approved by the Institutional Animal Care and Use Committee of Jeju National University (Approval ID: 2024-0058) and conducted in compliance with institutional guidelines. Male ICR mice (6 weeks old, average body weight 27 g) were purchased from […] (South Korea) and housed under controlled temperature (22 ± 2 °C) and humidity (0.0 ± 15.0 %) on a 12 hr light-dark cycle with free access to food and water.

[3] = molecular target: T1, CYP2E1 (Homo sapiens, UniProt P05181); test: Cytochrome P450 inhibition assay in HLMs; assay type: in vitro ADME; conditions: Chlorozoxazone 6-hydroxylation, pooled HLMs, up to 50 μM
T1 construct: tissue Xenotech H0630; host or cells: pooled human liver microsomes
T1 sequence (P05181 whole entry): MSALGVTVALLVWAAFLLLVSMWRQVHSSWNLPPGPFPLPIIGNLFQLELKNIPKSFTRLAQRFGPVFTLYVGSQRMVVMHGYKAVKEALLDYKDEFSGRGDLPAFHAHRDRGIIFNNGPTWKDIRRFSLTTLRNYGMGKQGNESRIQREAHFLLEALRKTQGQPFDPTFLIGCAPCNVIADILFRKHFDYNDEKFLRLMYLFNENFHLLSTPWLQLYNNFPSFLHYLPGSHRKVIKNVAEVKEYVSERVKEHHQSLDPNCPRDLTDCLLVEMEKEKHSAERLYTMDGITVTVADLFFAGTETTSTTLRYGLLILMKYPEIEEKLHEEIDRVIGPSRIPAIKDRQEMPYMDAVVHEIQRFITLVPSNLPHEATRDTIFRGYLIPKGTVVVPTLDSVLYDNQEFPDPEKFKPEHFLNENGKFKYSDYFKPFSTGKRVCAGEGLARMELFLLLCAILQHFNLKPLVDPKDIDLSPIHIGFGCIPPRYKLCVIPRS
Method: (§1) Cytochrome P450 Inhibition Assay: […] All experiments were performed in triplicate. Phenacetin O-deethylase, coumarin hydroxylase, bupropion hydroxylase, amodiaquine N-deethylase, tolbutamide 4-hydroxylase, S-mephenytoin hydroxylase, dextromethorphan O-demethylase, chlorozoxazone 6-hydroxylase, and midazolam 1’-hydroxylase activities were determined as probe activities for CYP1A2, CYP2A6, CYP2B6, CYP2C8, CYP2C9, CYP2C19, CYP2D6, CYP2E1, and CYP3A, respectively, using cocktail incubation and tandem mass spectrometry, as described previously^2,3.

[4] = molecular target: T2, CYP1A2 (Homo sapiens, UniProt P05177); test: Cytochrome P450 inhibition assay in HLMs; assay type: in vitro ADME; conditions: Phenacetin O-deethylation, pooled HLMs, up to 50 μM
T2 sequence (P05177 1-516): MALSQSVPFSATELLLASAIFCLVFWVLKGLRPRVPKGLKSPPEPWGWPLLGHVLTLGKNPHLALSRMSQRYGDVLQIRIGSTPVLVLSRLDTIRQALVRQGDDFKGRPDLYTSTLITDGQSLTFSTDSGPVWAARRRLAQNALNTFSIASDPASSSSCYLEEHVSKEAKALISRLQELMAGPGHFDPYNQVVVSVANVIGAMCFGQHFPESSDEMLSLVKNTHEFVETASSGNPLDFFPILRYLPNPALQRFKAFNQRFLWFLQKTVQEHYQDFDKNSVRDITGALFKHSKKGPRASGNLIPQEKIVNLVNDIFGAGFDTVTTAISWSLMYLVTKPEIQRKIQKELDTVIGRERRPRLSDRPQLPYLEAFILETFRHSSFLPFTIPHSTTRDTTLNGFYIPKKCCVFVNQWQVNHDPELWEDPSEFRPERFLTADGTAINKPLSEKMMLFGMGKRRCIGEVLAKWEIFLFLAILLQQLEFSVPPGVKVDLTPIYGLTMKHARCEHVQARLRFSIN
Method: as §1

[5] = molecular target: CYP3A (Homo sapiens, UniProt P08684); test: Cytochrome P450 inhibition assay in HLMs; assay type: in vitro ADME; conditions: pooled human liver microsomes, probe midazolam (1'-hydroxylation), up to 50 μM
CYP3A, sequence (P08684 2-503): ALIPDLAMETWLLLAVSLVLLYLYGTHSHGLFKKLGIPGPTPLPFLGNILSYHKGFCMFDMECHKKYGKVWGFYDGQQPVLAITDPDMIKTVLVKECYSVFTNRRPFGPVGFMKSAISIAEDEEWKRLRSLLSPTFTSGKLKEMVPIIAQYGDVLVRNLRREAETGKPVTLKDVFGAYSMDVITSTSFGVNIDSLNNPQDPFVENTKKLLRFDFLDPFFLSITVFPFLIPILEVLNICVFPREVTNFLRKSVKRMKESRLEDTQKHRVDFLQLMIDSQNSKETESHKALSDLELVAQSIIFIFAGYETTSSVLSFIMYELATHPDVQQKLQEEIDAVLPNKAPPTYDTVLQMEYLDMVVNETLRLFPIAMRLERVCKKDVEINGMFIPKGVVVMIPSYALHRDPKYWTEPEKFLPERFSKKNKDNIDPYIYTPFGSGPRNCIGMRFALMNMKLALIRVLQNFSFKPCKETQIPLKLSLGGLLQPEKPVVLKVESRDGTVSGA
Method: as §1

[6] = molecular target: T3, CYP2D6 (Homo sapiens, UniProt P10635); test: Cytochrome P450 inhibition assay in HLMs; assay type: in vitro ADME; conditions: Dextromethorphan O-demethylation, pooled HLMs, up to 50 μM
T3 construct: tissue Xenotech H0630; host or cells: pooled human liver microsomes
T3 sequence (P10635 whole entry): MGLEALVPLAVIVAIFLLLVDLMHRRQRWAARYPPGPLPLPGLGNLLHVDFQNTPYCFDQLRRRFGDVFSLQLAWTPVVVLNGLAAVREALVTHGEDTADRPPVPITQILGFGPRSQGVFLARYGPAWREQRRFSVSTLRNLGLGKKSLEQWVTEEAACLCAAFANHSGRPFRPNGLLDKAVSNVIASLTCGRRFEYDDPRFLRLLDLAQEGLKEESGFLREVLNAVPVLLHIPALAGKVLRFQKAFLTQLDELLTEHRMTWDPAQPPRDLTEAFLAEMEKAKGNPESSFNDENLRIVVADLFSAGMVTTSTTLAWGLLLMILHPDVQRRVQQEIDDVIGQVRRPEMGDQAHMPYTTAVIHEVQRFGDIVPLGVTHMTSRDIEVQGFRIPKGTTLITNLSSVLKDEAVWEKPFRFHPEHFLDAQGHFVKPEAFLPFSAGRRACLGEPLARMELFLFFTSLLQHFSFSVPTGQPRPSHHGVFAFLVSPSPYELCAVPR
Method: as §1

[7] = molecular target: T4, CYP2C9 (Homo sapiens, UniProt P11712); test: Cytochrome P450 inhibition assay in HLMs; assay type: in vitro ADME; conditions: Diclofenac 4-hydroxylation, pooled HLMs, up to 50 μM
T4 construct: tissue Xenotech H0630; host or cells: pooled human liver microsomes
T4 sequence (P11712 whole entry): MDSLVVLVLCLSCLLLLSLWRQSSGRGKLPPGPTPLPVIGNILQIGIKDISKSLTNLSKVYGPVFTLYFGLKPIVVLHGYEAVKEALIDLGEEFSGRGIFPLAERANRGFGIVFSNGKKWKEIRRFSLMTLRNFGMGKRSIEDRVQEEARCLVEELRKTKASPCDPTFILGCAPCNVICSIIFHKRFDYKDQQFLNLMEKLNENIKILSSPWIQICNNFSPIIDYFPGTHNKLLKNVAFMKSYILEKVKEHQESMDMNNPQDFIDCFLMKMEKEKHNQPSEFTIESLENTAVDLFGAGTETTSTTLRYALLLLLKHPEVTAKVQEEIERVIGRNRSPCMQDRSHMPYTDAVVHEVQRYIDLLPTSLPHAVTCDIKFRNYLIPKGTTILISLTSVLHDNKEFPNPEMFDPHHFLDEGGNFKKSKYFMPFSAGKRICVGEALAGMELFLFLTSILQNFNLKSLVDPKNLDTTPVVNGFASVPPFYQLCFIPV
Method: as §1

[8] = tested on: BLM-induced pulmonary fibrosis; test: BLM-induced pulmonary fibrosis, Ashcroft scoring of lung sections; assay type: in vivo, ICR mice; conditions: BLM 30 mg/kg intratracheal; ACF-2 10 mg/kg i.p. every 2 days or NIDB 60 mg/kg/day in drinking water, 2 weeks; BLM-only 6.2
Method: Male ICR mice received BLM (30 mg/kg, intratracheal). […] Fixed left lung lobes were paraffin-embedded, sectioned (4 μm), and stained with H&E or MT. A blinded pathologist graded pulmonary fibrosis on the 1-8 Ashcroft scale; representative images illustrate typical lesions. Colon samples were processed by the swiss-roll method, stained with H&E, and scored for inflammation and erosion, which were combined into a composite histological score. All animal studies were approved by the Institutional Animal Care and Use Committee of Jeju National University (Approval ID: 2024-0058) and conducted in compliance with institutional guidelines. Male ICR mice (6 weeks old, average body weight 27 g) were purchased from […] (South Korea) and housed under controlled temperature (22 ± 2 °C) and humidity (0.0 ± 15.0 %) on a 12 hr light-dark cycle with free access to food and water. […] Lung tissue: Left lung lobes were fixed in 4% paraformaldehyde for 24 h, dehydrated, and embedded in paraffin. Sections of 4 μm thickness were prepared, deparaffinized with xylene, and rehydrated in a graded ethanol series. H&E staining was performed using hematoxylin and eosin solutions, respectively. The severity of fibrosis was graded according to the Ashcroft scale (1-8), as evaluated by a pathologist blindly. Representative H&E images were chosen to illustrate the most characteristic pathology. […]

IC50 [3]: > 50 µM
IC50 [4]: > 50 µM
IC50 [5]: > 50 µM
IC50 [6]: 40.2 ± 12.4 µM
IC50 [7]: 18.1 ± 4.61 µM
Compound: COc1ccc(-c2c(-c3ccc(O)c(OC)c3)oc3cc(OC)c(OC)cc3c2=O)cc1 [ACF-2]
cytotoxicity (MTT) [1]: does not induce cellular cytotoxicity; also recorded: did not exhibit cytotoxic effects
TGF-β1 (Tgfb1) expression in lung (RT-qPCR) [2]: markedly reduced
Average Ashcroft score [8]: 3.3
